Key:
[1] = test system: transgenic AD model mice (APPswe/PSEN1dE9); test: Contextual fear conditioning test in transgenic AD model mice; format: in vivo, mouse; details: Tg AD model mice, 30 mg/kg daily, 1 month, PO
Procedure: The acute AD mice model was prepared by administration of Aβ1-42 solution (10% DMSO/90% PBS) to male ICR mice (6 weeks old, 30 − 33 g) via intracerebroventricular (ICV) injection (Aβ1-42 dose: 500 pmol/mouse) as described previously. The wild type mice (B6C3F1) and double APP/PS1 transgenic mice (Tg AD mice model; APPswe/PSEN1dE9) were purchased from Jackson Laboratory (Bar Harbour, ME, USA). The Tg AD model mice were 11 months old at the beginning of the behaviour test, and were housed for 1 month in a room under controlled temperature and fed ad libitum. The behaviour tests were conducted during daytime in air-controlled and soundproof experiment room. The animal experiments were abided by the guidelines of the Institutional Animal Care and Use Committee of Korea Institute of Science and Technology.
To the Tg mice of the AD model (n = 7 per group), each test compound (30 mg/kg) was orally administrated daily for 1 month. […] Freezing response was measured by the fear conditioning system without application of CS or US.
In addition, we assessed recovery effects of compound 7 by performing contextual fear conditioning tests.[40] Healthy mice show higher number of total freezing, which is an index of fear learning and memory of rodents; therefore, the number of total freezing responses under fear-relevant stimuli was measured with the compound-treated Tg AD model mice. […]

[2] = test system: HT22 cells treated with Aβ; test: Cellular ROS assay (DCFDA): inhibition of Aβ-induced ROS generation; format: cell-based, mouse; details: Mus musculus, HT-22, 5 μM compound
Procedure: Among 56 compounds, 23 compounds were selected and further tested for the luciferase-based ATP assay. […] Thus, we chose these two compounds and further evaluated their biological activity by measuring cell viability and reactive oxygen species (ROS) production. The effects on cell viability of each compound under Aβ-induced cytotoxicity were determined by measuring the metabolic activity of NAD(P)H-dependent cellular oxidoreductases using the 3–(4,5-dimethylthiazol-2-yl)-2,5-diphenyl-tetrazolium bromide (MTT) dye. To measure cellular ROS levels, we used a fluorescence indicator, 2′,7′-dichlorofluorescein diacetate (DCFDA), and calculated the percent inhibition of ROS generation by applying the same method used for MTT assays. Compound 7 inhibited Aβ-induced ROS generation (97% at 5 µM) almost to the level of the untreated control (Table 1). […] On the basis of the in vitro activity, we selected compound 7 as the best hit from the initial screening library.

[3] = test system: transgenic AD model mice (APPswe/PSEN1dE9); test: Y-maze spontaneous alternation test in transgenic AD model mice; format: in vivo, mouse; details: Tg APPswe/PSEN1dE9 mice, 30 mg/kg daily, 1 month, PO
recombinant human TSPO = target: T1, recombinant human TSPO (Homo sapiens, UniProt P30536); test: Surface plasmon resonance (SPR) binding affinity; details: mean ± SD of three measurements
T1 construct: purchased Origene Technologies, Inc. TP320107
Procedure: To determine the binding affinities of the selected compounds, the KD values were measured by using Biacore T200 optical biosensor system (GE Healthcare). The recombinant human TSPO (18 kDa, Origene Technologies, Inc., No.: TP320107) was covalently immobilised on a CM5 chip (GE Healthcare) at 25 °C via standard amine-coupling protocols in 10 mM sodium acetate (pH 4.5) at a flow rate of 10 µL/min for 1500s (immobilised protein densities: 5,000–6,000 response unit (RU)). The tested compounds were initially prepared at 10 mM in DMSO, and serially diluted in PBS-P buffer (10 mM NaH2PO4, 150 mM NaCl, pH 7.4) to 1% DMSO. For each tested compound, the kinetic values were measured using a five-point concentration series, 0.001, 0.01, 0.5, 1, and 5 µM. Multiple blank samples of running buffer alone (0 µM of tested compounds) were incorporated in every measurement. The filtered PBS-P buffer containing 1% DMSO was used as a running buffer during the SPR experiments. To measure the kinetic values, a series of different concentrations were injected over the immobilised chip at a flow rate of 50 µL/min (contact time: 120 s, dissociation time: 300 s), followed by the regeneration process at a flow rate of 50 µL/min (contact time: 120 s, stabilisation time: 10 s). The KD value of each compound was calculated by Biacore T200 evaluation software (GE Healthcare) after the standard solvent correction process.

CYP2C19 = target: T2, CYP2C19 (Homo sapiens, UniProt P33261); test: CYP inhibition assay (Vivid CYP450 screening kit); format: in vitro ADME; details: 10 μM compound
T2 construct: purchased Invitrogen, Madison, WI, USA
In short: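 Recombinant human CYP isozymes in baculosomes with rabbit NADPH-P450 reductase and a G6P/G6PDH regeneration system (100 mM potassium phosphate, pH 8.0) were preincubated with compound 5 min at 37 °C. Reactions were started with Vivid fluorogenic substrates and 0.1 mM NADP+, and % remaining activity was read by fluorescence after 20 min.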

T1 sequence (P30536 whole entry): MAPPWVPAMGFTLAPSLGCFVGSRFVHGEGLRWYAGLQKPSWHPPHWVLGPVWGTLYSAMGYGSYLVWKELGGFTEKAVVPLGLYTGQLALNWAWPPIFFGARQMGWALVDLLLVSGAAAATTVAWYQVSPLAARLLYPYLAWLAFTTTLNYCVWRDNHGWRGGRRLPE
T2 sequence (P33261 whole entry): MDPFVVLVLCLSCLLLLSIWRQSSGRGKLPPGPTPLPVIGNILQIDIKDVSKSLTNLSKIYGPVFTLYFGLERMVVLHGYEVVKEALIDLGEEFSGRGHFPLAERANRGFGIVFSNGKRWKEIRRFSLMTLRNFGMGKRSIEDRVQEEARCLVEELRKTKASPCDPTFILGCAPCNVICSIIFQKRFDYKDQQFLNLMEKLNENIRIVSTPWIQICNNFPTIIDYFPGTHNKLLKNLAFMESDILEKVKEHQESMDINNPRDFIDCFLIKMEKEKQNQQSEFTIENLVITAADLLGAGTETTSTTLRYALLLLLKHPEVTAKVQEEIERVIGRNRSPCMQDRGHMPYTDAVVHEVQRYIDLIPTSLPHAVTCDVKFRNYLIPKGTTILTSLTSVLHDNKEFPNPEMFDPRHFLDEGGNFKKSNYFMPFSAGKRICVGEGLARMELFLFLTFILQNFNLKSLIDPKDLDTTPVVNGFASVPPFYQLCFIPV

Row | Kd (recombinant human TSPO) [nM] | CYP450 (% remaining Activity at 10 μM) CYP2C19 (CYP2C19) [%] | Compound | Contextual fear conditioning: percent recovery of freezing [1] [%] | inhibition at 5 µM [2] [%] | Recovery of Y-maze spontaneous alternations [3] [%]
1 | 630 ± 330 | – | CCOc1ccc(-n2c(SCC(=O)Nc3ccc(OC)c(OC)c3)nc3sc4c(c3c2=O)CCN(C(C)=O)C4)cc1 [Compound 7] | 62 | 97 | 50
2 | – | 107.6 | CCOc1ccc(-n2c(SCC(=O)NC3CCN(C)CC3)nc3sc4c(c3c2=O)CCN(C(C)=O)C4)cc1 [Compound 30] | – | – | –
3 | 1250 ± 400 | 70.0 | CCOc1ccc(-n2c(SCC(=O)NCc3ccccc3)nc3sc4c(c3c2=O)CCN(C(C)=O)C4)cc1 [Compound 31] | – | – | –
4 | 2740 ± 660 | 28.3 | CCOc1ccc(-n2c(SCC(=O)N3CCN(c4ccccc4)CC3)nc3sc4c(c3c2=O)CCN(C(C)=O)C4)cc1 [Compound 44] | – | – | –
5 | – | 90.0 | CCOc1ccc(-n2c(SCC(=O)NCc3ccccc3)nc3sc4c(c3c2=O)CCN(C)C4)cc1 [Compound 49] | – | – | –
6 | – | 47.9 | CCOc1ccc(-n2c(SCC(=O)N(C)Cc3ccccc3)nc3sc4c(c3c2=O)CCN(C)C4)cc1 [Compound 50] | – | – | –

Reference: paper PMC7996082, “The translocator protein ligands as mitochondrial functional modulators for the potential anti-Alzheimer agents” (Journal of Enzyme Inhibition and Medicinal Chemistry, 2021)
